The subject of assay [1] is sodium channels. The class given is cell-based. The conditions noted are these: read-out: IC50 (μM), sodium channel-inhibiting activity; rat fetal cultured hippocampal neurons, SBFI fluorescence in the presence of 4-aminopyridine, 5 minutes after addition, 1 μM tetrodotoxin = 100%.
Assay [2] has as its system left saphenous nerve of rats (ectopic firing). Description: Inhibition of ectopic firing. The assay is classed as in vivo. The conditions noted are these: Rattus norvegicus, iv; rats with cut left saphenous nerve, urethane anesthesia, compound via catheter in right cervical vein, number of firings in 10 seconds; read-out: Inhibition of ectopic firing (ID50). As for the experimental part:
<Inhibition of Ectopic Firing>
(1) The inhibitory effect on ectopic firing was evaluated by the following method, with reference to Burchiel, K J., Exp. Neurol., 102, 249-253 (1988).
(2) The left saphenous nerve of rats, in which ectopic firing was observed, was cut near the knee joint, and approximately 3 mm was cut off to avoid reattachment of the cut nerve. After more than a week, the left saphenous nerve was exposed under urethane (1 g/kg body weight) anesthesia, and the proximal part up to approximately 1 cm from the cut site was detached from the surrounding tissue. A catheter was inserted in the right cervical vein beforehand for administration of the compound.
(3) The detached nerve was placed on a platinum hook electrode and wetted with liquid paraffin to avoid drying of the nerve. The electrode was connected to a microelectrode amplifier, and the change in potential was recorded from an oscilloscope through an A/D converter onto a computer. The recorded nerve firing was evaluated based on the number of firings in 10 seconds, using analyzing software (AcqKnowledge).

For `C[C@H]1C[C@@H](C(=O)Cc2ccccc2F)CCN1Cc1ncc[nH]c1=O` (relative stereo) [Example 415, cis-3-[4-[2-(2-Fluorophenyl)acetyl]-2-methylpiperidino]methyl-1H-pyrazin-2-one], the IC50 in assay [1] came out at 4.6 µM. Also, the ED50 in assay [2] was under 0.5 mg/kg. As for `O=c1[nH]cccc1CN1CCC(F)(COc2ccccc2F)CC1` [Example 124, 3-[4-Fluoro-4-(2-fluorophenoxymethyl)piperidino]methyl-1H-pyridin-2-one], in assay [1], the IC50 came out at 7.8 µM. The ED50 in assay [2] was under 0.5 mg/kg. For `O=c1[nH]cccc1CN1CC2CCCC(C1)C2/C=C/c1ccccc1F` (stereo not drawn) [Example 129, anti-(E)-3-[9-[2-(2-Fluorophenyl)vinyl]-3-azabicyclo[3.3.1]non-3-yl]methyl-1H-pyridin-2-one], in assay [1], the IC50 is 2.1 µM. For the same compound, in assay [2], the ED50 lay within 0.5 to 1 mg/kg. Turning to `O=C(O)C(=O)O.O=c1[nH]ccnc1CN1CCC(COc2ccccc2F)C1` (centres unmarked) [Example 132, 3-[3-(2-Fluorophenoxymethyl)pyrrolidino]methyl-1H-pyrazin-2-one oxalate], the IC50 in assay [1] was 6.2 µM. In assay [2], the ED50 is 0.5 to 1 mg/kg.

As for `O=c1[nH]ccnc1CN1CCC(CCc2ccccc2F)C1` (centres unmarked) [Example 134, 3-[3-[2-(2-Fluorophenyl)ethyl]pyrrolidino]methyl-1H-pyrazin-2-one], the IC50 in assay [1] turned out to be 3.1 µM. The ED50 in assay [2] is 0.5 to 1 mg/kg.

Take `COc1ccccc1CCC1CCN(Cc2ncc[nH]c2=O)C1.O=C(O)C(=O)O` (centres unmarked) [Example 135, 3-[3-[2-(2-Methoxyphenyl)ethyl]pyrrolidino]methyl-1H-pyrazin-2-one oxalate]: the IC50 in assay [1] stood at 4 µM. The ED50 in assay [2] is under 0.5 mg/kg.

`Cc1ccccc1OCC1CCN(Cc2ncc[nH]c2=O)C1.O=C(O)C(=O)O` (centres unmarked) [Example 136, 3-[3-(2-Methylphenoxymethyl)pyrrolidino]methyl-1H-pyrazin-2-one oxalate]: in assay [1], the IC50 was determined as 4.7 µM. In addition, the ED50 in assay [2] lay in the range of 0.5 to 1 mg/kg. For `O=c1[nH]ccnc1CN1CCC(CCc2cccc3c2OCC3)CC1` [Example 140, 3-[4-[2-(2,3-Dihydrobenzofuran-7-yl)ethyl]piperidino]methyl-1H-pyrazin-2-one], in assay [1], the IC50 was determined as 5.6 µM. For the same compound, the ED50 in assay [2] was under 0.5 mg/kg. On to `O=c1[nH]ccnc1CN1CCC(COc2ccccc2F)CC1` [Example 142, 3-[4-(2-Fluorophenoxymethyl)piperidino]methyl-1H-pyrazin-2-one], for which the IC50 in assay [1] was determined as 4.2 µM. In addition, the ED50 in assay [2] is under 0.5 mg/kg. In the case of `COc1ccccc1OCC1CCN(Cc2ncc[nH]c2=O)CC1` [Example 143, 3-[4-(2-Methoxyphenoxymethyl)piperidino]methyl-1H-pyrazin-2-one], the IC50 in assay [1] came to 3.1 µM. The ED50 in assay [2] is under 0.5 mg/kg. `COc1ccccc1C(=O)CC1CCN(Cc2ncc[nH]c2=O)CC1` [Example 145, 3-[4-[2-(2-Methoxyphenyl)-2-oxoethyl]piperidino]methyl-1H-pyrazin-2-one]: the IC50 in assay [1] was found to be 9.5 µM. Also, in assay [2], the ED50 was 0.5 to 1 mg/kg. The like results for `O=c1[nH]ccnc1CN1CCC(CCc2cccc3ccoc23)CC1` [Example 146, 3-[4-[2-(Benzofuran-7-yl)ethyl]piperidino]methyl-1H-pyrazin-2-one] were, in that order, 2 µM and under 0.5 mg/kg. Consider `Cc1ccccc1OCC1CCN(Cc2ncc[nH]c2=O)CC1` [Example 147, 3-[4-(2-Methylphenoxymethyl)piperidino]methyl-1H-pyrazin-2-one], for which the IC50 in assay [1] turned out to be 2.5 µM. Further, in assay [2], the ED50 is under 0.5 mg/kg. `O=c1[nH]ccnc1CN1CCC(COc2cc(F)ccc2F)CC1` [Example 151, 3-[4-(2,5-Difluorophenoxymethyl)piperidino]methyl-1H-pyrazin-2-one]: the IC50 in assay [1] amounted to 2.9 µM. Moreover, in assay [2], the ED50 fell in the range of 0.5 to 1 mg/kg. For `Cc1ccccc1COC1CCN(Cc2ncc[nH]c2=O)CC1` [Example 152, 3-[4-(2-Methylbenzyloxy)piperidino]methyl-1H-pyrazin-2-one], the IC50 in assay [1] was found to be 5.3 µM. Moreover, the ED50 in assay [2] is 0.5 to 1 mg/kg. Consider `Cc1cccc(OCC2CCN(Cc3ncc[nH]c3=O)CC2)c1` [Example 153, 3-[4-(3-Methylphenoxymethyl)piperidino]methyl-1H-pyrazin-2-one], for which, in assay [1], the IC50 was 4.1 µM. The ED50 in assay [2] was 0.5 to 1 mg/kg. As to `Cc1ccccc1OCC1CCCN(Cc2ncc[nH]c2=O)C1` (centres unmarked) [Example 154, 3-[3-(2-Methylphenoxymethyl)piperidino]methyl-1H-pyrazin-2-one], in assay [1], the IC50 came out at 3.1 µM. The ED50 in assay [2] fell in the range of 0.5 to 1 mg/kg. As for `O=c1[nH]ccnc1CN1CCCC(CCc2ccccc2F)C1` (centres unmarked) [Example 156, 3-[3-[2-(2-Fluorophenyl)ethyl]piperidino]methyl-1H-pyrazin-2-one], in assay [1], the IC50 was 4.5 µM. The ED50 in assay [2] is 0.5 to 1 mg/kg. In the case of `Cc1ccsc1/C=C/C1CCN(Cc2ncc[nH]c2=O)CC1` [Example 157, (E)-3-[4-[2-(3-Methyl-2-thienyl)vinyl]piperidino]methyl-1H-pyrazin-2-one], the IC50 in assay [1] was 3.6 µM. Further, the ED50 in assay [2] was under 0.5 mg/kg. `O=c1[nH]ccnc1CN1CCC(COc2ccccc2Cl)CC1` [Example 158, 3-[4-(2-Chlorophenoxymethyl)piperidino]methyl-1H-pyrazin-2-one]: the IC50 in assay [1] is 3.7 µM. Besides, the ED50 in assay [2] was under 0.5 mg/kg.

On to `O=c1[nH]ccnc1CN1CCC(COCc2ccccc2F)CC1` [Example 160, 3-[4-(2-Fluorobenzyloxymethyl)piperidino]methyl-1H-pyrazin-2-one], for which the IC50 in assay [1] came out at 3.5 µM. In addition, the ED50 in assay [2] lay within 0.5 to 1 mg/kg.

Take `O=c1[nH]ccnc1CN1CCC(COc2cccc(F)c2)CC1` [Example 162, 3-[4-(3-Fluorophenoxymethyl)piperidino]methyl-1H-pyrazin-2-one]: in assay [1], the IC50 was 4.6 µM. The ED50 in assay [2] was 0.5 to 1 mg/kg. The like results for `O=c1[nH]ccnc1CN1CCC(COc2ccccc2C(F)(F)F)CC1` [Example 164, 3-[4-[2-(Trifluoromethyl)phenoxymethyl]piperidino]methyl-1H-pyrazin-2-one] were, in that order, 3.3 µM and under 0.5 mg/kg. As for `O=c1[nH]ccnc1CN1CCC(COc2ccccc2OC(F)(F)F)CC1` [Example 167, 3-[4-[2-(Trifluoromethoxy)phenoxymethyl]piperidino]methyl-1H-pyrazin-2-one], the IC50 in assay [1] amounted to 2.3 µM. Further, the ED50 in assay [2] is under 0.5 mg/kg.

On to `O=c1[nH]ccnc1CN1CCC(/C=C/c2sccc2Cl)CC1` [Example 168, (E)-3-[4-[2-(3-Chloro-2-thienyl)vinyl]piperidino]methyl-1H-pyrazin-2-one], for which the IC50 in assay [1] was determined as 2.1 µM. Besides, the ED50 in assay [2] was 0.5 to 1 mg/kg.

As for `O=C(CC1CCN(Cc2ncc[nH]c2=O)CC1)c1sccc1Cl` [Example 169, 3-[4-[2-(3-Chloro-2-thienyl)-2-oxoethyl]piperidino]methyl-1H-pyrazin-2-one], the IC50 in assay [1] was 3.5 µM. Also, in assay [2], the ED50 fell in the range of 0.5 to 1 mg/kg. The matching figures for `O=c1[nH]ccnc1CN1CCC(C#Cc2ccccc2F)CC1` [Example 170, 3-[4-[(2-Fluorophenyl)ethynyl]piperidino]methyl-1H-pyrazin-2-one]: 0.4 µM and under 0.5 mg/kg.

With `Cc1ccccc1/C=C/C1CCN(Cc2ncc[nH]c2=O)CC1` [Example 171, (E)-3-[4-[2-(2-Methylphenyl)vinyl]piperidino]methyl-1H-pyrazin-2-one], the IC50 in assay [1] was 0.6 µM. Also, the ED50 in assay [2] is under 0.5 mg/kg. The matching figures for `O=c1[nH]ccnc1CN1CCC(CCc2sccc2F)CC1` [Example 172, 3-[4-[2-(3-Fluoro-2-thienyl)ethyl]piperidino]methyl-1H-pyrazin-2-one]: 5 µM and 0.5 to 1 mg/kg. Take `O=C(CC1CCN(Cc2ncc[nH]c2=O)CC1)c1ccccc1Cl` [Example 174, 3-[4-[2-(2-Chlorophenyl)-2-oxoethyl]piperidino]methyl-1H-pyrazin-2-one]: the IC50 in assay [1] was determined as 3.6 µM. Further, the ED50 in assay [2] is under 0.5 mg/kg. Consider `O=c1[nH]ccnc1CN1CCC(/C=C/c2cccc(F)c2)CC1` [Example 176, (E)-3-[4-[2-(3-Fluorophenyl)vinyl]piperidino]methyl-1H-pyrazin-2-one], for which, in assay [1], the IC50 worked out at 5.4 µM. Moreover, the ED50 in assay [2] was 0.5 to 1 mg/kg. Take `O=c1[nH]ccnc1CN1CCC(CCc2ccccc2F)CC1` [Example 177, 3-[4-[2-(2-Fluorophenyl)ethyl]piperidino]methyl-1H-pyrazin-2-one]: in assay [1], the IC50 was found to be 4.5 µM. The ED50 in assay [2] is under 0.5 mg/kg. Regarding `O=C(Cc1ccccc1F)C1CCN(Cc2ncc[nH]c2=O)CC1` [Example 179, 3-[4-[2-(2-Fluorophenyl)acetyl]piperidino]methyl-1H-pyrazin-2-one], the IC50 in assay [1] stood at 4.6 µM. Moreover, the ED50 in assay [2] was under 0.5 mg/kg. Regarding `O=C(Cc1ccccc1Cl)C1CCN(Cc2ncc[nH]c2=O)CC1` [Example 183, 3-[4-[2-(2-Chlorophenyl)acetyl]piperidino]methyl-1H-pyrazin-2-one], the IC50 in assay [1] is 2.6 µM. In addition, the ED50 in assay [2] is under 0.5 mg/kg.

For the compound `Cc1ccccc1CC(=O)C1CCN(Cc2ncc[nH]c2=O)CC1` [Example 184, 3-[4-[2-(2-Methylphenyl)acetyl]piperidino]methyl-1H-pyrazin-2-one], the IC50 in assay [1] is 2.9 µM. Further, in assay [2], the ED50 is under 0.5 mg/kg.

Consider `Cc1ccccc1C#CC1(O)CCN(Cc2ccc[nH]c2=O)CC1` [Example 259, 3-[4-Hydroxy-4-[(2-methylphenyl)ethynyl]piperidino]methyl-1H-pyridin-2-one], for which the ED50 in assay [2] is under 0.5 mg/kg.

The IC50 is the concentration at which inhibition is half-maximal.

Values taken from patent US20050245527A1, “Nitrogen containing heterocyclic compounds and medicines containing the same” (priority 2002, published 2005).
